Experiments:
[1] = test system: Chloroform-induced arrhythmia; test: Chloroform-induced arrhythmia (mice); conditions: for minimal effective dose: Mus musculus, po, 1 h, read-out: Effective dose; for Lethal dose: peroral, mice
Procedure: (1) Chloroform-induced arrhythmia (mice):
Ventricular arrhythmia was caused experimentally in mice by the following method.
The mice were placed in a device filled with chloroform gas. After expiring, the ventricular pulse was counted from a record of an electrocardiogram. The antiarrhythmic activity of the test compound was determined based on its effect of relieving tachycardia. […] The compounds were tested by administration by two routes, i.e. peroral and intravenous injection. […] As comparative standard medicines, quinidine, disopyramide and phenytoin were employed. This method is taught in the publication, J. Pharmacol. Exp. Ther. 160,22 (1968), by J. W. Lawson.

[2] = Acute toxicity (rats), peroral; conditions: rat, in vivo, po
Description: (3) Acute toxicity (rats):
The acute toxicity tests on rats (peroral administration) were effected using typical compounds of the present invention, i.e. 6-chloro-2,2-dimethyl-1'-[3-(4-hydroxypiperidino)propyl]spiro[chroman-4,4'-imidazolidine]-2',5'-dione (compound 1) and 2,2-dimethyl-6-fluoro-1'-[3-(4-hydroxypiperidino)propyl]-spiro[chroman-4,4'-imidazolidine]-2',5'-dione (compound 2).

myocardia = test: Contraction of the myocardia; conditions: dose several times as much as that required for the antiarrhythmic effects
Description: This property is quite preferred when they are used as antiarrhythmic agents.

Row | Structure (SMILES) | minimal effective dose [1] | Lethal dose [1] | LD50 ([2]; female rats) | LD50 ([2]; male rats) | contraction power of the myocardia (myocardia)
1 | CCN(CC)CCN1C(=O)NC2(CC(C)(C)Oc3ccc(F)cc32)C1=O (stereo not shown) | 12.5 mg/kg | 200 mg/kg |  |  | 
2 | CC(C)N(CCN1C(=O)NC2(CC(C)(C)Oc3ccc(F)cc32)C1=O)C(C)C (stereo not shown) | 25 mg/kg | 200 mg/kg |  |  | 
3 | CN(C)CCN1C(=O)NC2(CC(C)(C)Oc3ccc(F)cc32)C1=O (stereo not shown) | 50 mg/kg | 400 mg/kg |  |  | 
4 | CC1CC2(NC(=O)N(CCCN(C)C)C2=O)c2cc(Cl)ccc2O1 (stereo not shown) | 12.5 mg/kg | 50 mg/kg |  |  | 
5 | CCC1(CC)CC2(NC(=O)N(CCCN(C)C)C2=O)c2cc(Cl)ccc2O1 (stereo not shown) | 25 mg/kg | 400 mg/kg |  |  | 
6 | CC1(C)CC2(NC(=O)N(CCCN3CCC(O)CC3)C2=O)c2cc(Cl)cc(Cl)c2O1 (stereo not shown) | 12.5 mg/kg | 400 mg/kg |  |  | 
7 | CC1(C)CC2(NC(=O)N(CCCN3CCC(c4ccccc4)CC3)C2=O)c2cc(F)ccc2O1 (stereo not shown) | 50 mg/kg | 200 mg/kg |  |  | 
8 | CCC1(CC)CC2(NC(=O)N(CCCN3CCC(O)CC3)C2=O)c2cc(F)ccc2O1 (stereo not shown) | 25 mg/kg | 400 mg/kg |  |  | 
9 | COC1CCN(CCCN2C(=O)NC3(CC(C)(C)Oc4ccc(F)cc43)C2=O)CC1 (stereo not shown) | 25 mg/kg | 400 mg/kg |  |  | 
10 | CC1(C)CC2(NC(=O)N(CCCN3CCC(O)CC3)C2=O)c2cc(Cl)ccc2O1 (stereo not shown) [Compound 1, 6-chloro-2,2-dimethyl-1'-[3-(4-hydroxypiperidino)propyl]spiro[chroman-4,4'-imidazolidine]-2',5'-dione] |  |  | 858 mg/kg | 930 mg/kg | 
11 | CC1(C)CC2(NC(=O)N(CCCN3CCC(O)CC3)C2=O)c2cc(F)ccc2O1 (stereo not shown) [Compound 2, 2,2-dimethyl-6-fluoro-1'-[3-(4-hydroxypiperidino)propyl]-spiro[chroman-4,4'-imidazolidine]-2',5'-dione] |  |  | 780 mg/kg | 860 mg/kg | 
12 | CC(C)N(CCC(C(N)=O)(c1ccccc1)c1ccccn1)C(C)C (stereo not shown) [Disopyramide phosphate, reference compound] | 50 mg/kg | 600 mg/kg |  |  | 
13 | O=C1NC(=O)C(c2ccccc2)(c2ccccc2)N1 [Phenytoin sodium, reference compound] | 100 mg/kg | > 800 mg/kg |  |  | 
14 | C=CC1CN2CCC1CC2C(O)c1ccnc2ccc(OC)cc12 (stereo not shown) [Quinidine sulfonate, reference compound] | 200 mg/kg | 800 mg/kg |  |  | 
15 | CC(C)N(CCC(C(N)=O)(c1ccccc1)c1ccccn1)C(C)C (stereo not shown) [disopyramide] |  |  |  |  | reduce the contraction power of the myocardia
16 | CC1(C)CC2(NC(=O)N(CCCN3CCC(O)CC3)C2=O)c2cc(Cl)ccc2O1 (stereo not shown) [drawing 12] | 25 mg/kg | 400 mg/kg |  |  | 
17 | CC1(C)CC2(NC(=O)N(CCCN3CCC(O)CC3)C2=O)c2cc(F)ccc2O1 (stereo not shown) [drawing 13] | 25 mg/kg | 400 mg/kg |  |  | 
18 | C=C[C@H]1C[N@@]2CC[C@H]1C[C@@H]2[C@@H](O)c1ccnc2ccc(OC)cc12 [quinidine] |  |  |  |  | reduce the contraction power of the myocardia

— patent US4650798A, “Antiarrhythmic 2,2-dialkyl-1-(aminoalkyl)-spiro[chroman-4,4'-imidazolidine]-2',5'-dione s” (priority 1984, dated 1987)
